Test results from US7390826B2, “Inhibitors of animal cell motility and growth” (The Board of Trustees of The University of Illinois, priority 2002, dated 2008).
Where two headings read alike, the source gives them in different places.

What was measured:
[1] = system: MDCK cells; test: MDCK cell proliferation; assay type: cell-based, canine; settings: 50 μM
Description: In FIG. 2A, cells were plated at low cell density (1×10^4 cells/mL) and allowed to attach and begin to grow for 48 hours prior to the start of experiment. The treatments were 0.1% DMSO (control, n=9 cultures), 50 μM compound 1 (n=8), or 50 μM compound 11 (n=7). Reported values are mean with SEM of the percent increase in cell number from 0 to 48 hours after addition of compound 1.
The values were mean with SEM of the percent increase in cell number another 48 hours after replacement of medium containing 50 μM compound 1 (n=8 cultures) or 0.1% DMSO (n=9) with fresh medium containing 0.1% DMSO.
MDCK cell proliferation: MDCK cells were plated on multiwell tissue culture plates at low density ([…]). Cells were allowed to attach and begin to grow for 48 hours before the start of the experiment. Fresh medium with or without compound was then added, and cells were incubated for 48 hours. At both 0 and 48 hours, some of the parallel wells for control and compound treatments were washed twice with PBS and treated with trypsin/EDTA solution to detach the cells. An equal volume of medium was added, cells were collected and counted using a hemacytometer. For reversibility, some of the parallel cultures for both control and compound treatments were grown another 48 hours after washing twice with PBS and replacing medium with fresh compound-free medium. At both the time of washing out and 48 hours later, some of the parallel wells for control and compound treatments were washed twice with PBS, detached from the plates with trypsin/EDTA solution, and the number of cells was counted.

[2] = system: MDCK cell monolayers; test: filamentous actin staining (rhodamine-phalloidin) of wounded MDCK monolayers; assay type: cell-based, canine; settings: 50 μM; 12 hours after wounding
Description: Although formation of perimarginal actin bundles is not required for wound closure in this system, these actin bundles may help to distribute force in the first row of cells from actively protruding and moving cells to less-actively motile cells, thus making the closure process more regular and uniform than it would be otherwise.
Filamentous actin staining: MDCK cell mono-layers on glass coverslips-were fixed with 3.7% formaldehyde in PBS 12 hours after wounding. Cells were permeabilized with 0.1% (w/v) TRITONO X-100 in PBS, stained with 50 nM tetramethylrhodamine-conjugated phalloidin in PBS, and washed twice with PBS. Coverslips were mounted in 90% glycerol/10% ten strength PBS with 2 mg/mL p-phenylenediamine on glass slides and then examined by fluorescence microscopy.

[3] = system: Xenopus laevis embryos; test: frog embryo morphogenesis assay (scoring of developmental defects); assay type: in vivo; settings: for EC50: Xenopus laevis, 72 h
Text: In order to identify compounds that specifically perturb morphogenesis in the frog embryo, a suitable method for scoring embryos by characteristic defects was developed. A useful starting point was the “dorso-anterior index” (DAI). The DAI originally was constructed by adding new morphological characteristics to the older “index of axis deficiency” (S. R. Scharf et al., Dev. Biol., 99, 75-87 (1983)). The DAI is a scale of dorsoanterior development wherein embryos are assigned a score based on degree of dorsoanterior phenotype (K. R. Kao et al., Dev. Biol., 127, 64-77 (1988)). The scale encompasses a score of 0 (for the most axis-deficient or ventralized embryos) to 10 (for embryos with the most enhanced dorsoanterior structures), with a score of 5 signifying a normal embryo.
Because the DAI focuses only on dorsoanterior phenotypes, other categories were added to describe possible defects more comprehensively, with an emphasis on characteristics that are easily and unambiguously recognized in intact embryos, and that are diagnostic of possible effects on morphogenesis during gastrulation and neurulation. The most useful and readily scored categories that covered the most frequent deficiencies were: reduced anterior structures and microcephaly, delayed appearance or absence of eye pigmentation, overall shortness along the anteroposterior axis, bent axis, bent tail only, reduced posterior structures/tail, malformed or reduced fins, delayed or failed neural tube closure (neural fold fusion), abnormal pigmentation pattern, ventral swelling (edema), and delayed or abnormal visceral organogenesis and yolk resorption. In addition, blastopore closure, an earlier process that marks the completion of gastrulation, was observed.
In these tests, test compounds were added individually to wells each containing 4-8 embryos in 12-well plates. Embryos at stage 8.5-9, according to the classification of Nieuwkoop and Faber (P. I. Nieuwkoop et al., Normal Table of Xenopus laevis (Daudin). Amsterdam: North-Holland Publ.) (1967)), were used because these are late blastula stages before gastrulation begins at stage 10, which allowed focusing primarily on compounds that affect morphogenetic events in gastrulation and neurulation. These embryos, therefore, have undergone a midblastula transition at stage 8 (cleavage division 12) when zygotic transcription begins (J. Newport et al., Cell, 30, 675-686 (1982); J. Newport et al., Cell, 30, 687-696 (1982)) but have not yet started the morphogenetic movements of gastrulation.
Standard procedures were used in the care of animals, gamete preparation, fertilization of oocytes, and culture of embryos (B. K. Kay et al., Methods in Cell Biology, Volumn 36 (San Diego: Academic Press, Inc.) (1991)). In order to stimulate ovulation, female frogs were injected with 500 units of human chorionic gonadotropin (HCG). Eggs were squeezed from female frogs 12 hours later. Testes were removed from euthanized male frogs that had been primed with 50 units of HCG 4-6 hours earlier. The testes were stored at 4° C. in single strength Marc's Modified Ringer's solution with 50 μg/ml gentamycin and used for no more than 10 days. Small pieces of testes were macerated and spread over eggs for in vitro fertilization in Petri dishes. Fertilized eggs were placed in one-tenth strength Modified Barth's Saline (MBS) with 50 μg/ml gentamycin at constant temperature (19° C.) in a temperature-controlled incubator and development allowed to proceed under these conditions. Embryos were dejellied by briefly swirling them in a solution of 2% (w/v) L-cysteine, pH 8.0. The embryos then were rinsed extensively with one-tenth strength MBS to wash out the cysteine. Experiments were started within an hour of dejellying the embryos.
Experiments were carried out in 12-well flat-bottom polystyrene plates with 4-8 embryos per well in 1.0 ml of one-tenth strength MBS with 50 μg/ml gentamycin at 19° C. […]

## C/C=C/C(=O)N1C(=O)OC[C@@H]1Cc1ccccc1 [Compound 1, (4S)-3-((E)-2-butenoyl)-4-benzyl-2-oxazolidinone]
[1]; 0 to 48 hours
  inhibition of MDCK cell proliferation (percent increase in cell number): reversibly inhibited MDCK cell proliferation
[1]; another 48 hours after washing out
  reversibility of inhibition of cell proliferation: reversible
[2]
  formation of filamentous actin bundles at wound margin: did not affect formation of filamentous actin bundles
[3]; 15 μM added at 2-cell stage
  reduction in the length of the tail: evident
[3]; 15 μM added at 2-cell stage, 48 hours
  effects on anteroposterior elongation, head and eye development, visceral organogenesis and yolk resorption: significant effects
[3]; 15 μM added at stage 8.5-9, 48, 72 or 96 hours after treatment, Student's t-test
  anteroposterior length, head development, eye pigmentation, visceral organogenesis and yolk resorption versus control embryos: significantly different
[3]; 15 μM, stage 8.5-9 embryos
  exposure before washing out with no significant effect on later development: up to 9 hours
  exposure resulting in significant defects in postneurula analyses: ≥ 12 h
[3]; read-out: EC50 with respect to the defective phenotype at 72 hr following treatment
  EC50: 13.9 µM
[3]; read-out: log EC50+standard error of log EC50 (converted)
  EC50: 13.9 µM
[3]; frog embryos
  concentration lethal to the embryos: 2 to 3 times the EC50
[3]; treatment at stage 8.5-9 or 2-cell stage
  blastopore closure in gastrulating embryos: delayed
